In brackets after ≈: the same amount, converted by molar mass. Activity calls are given as the source filed them. The calls are words filed in the database; no cut-off is given here.
Assays:
Rhabditis sp. [1] = experiment: Nematicidal activity against juvenile stage of Rhabditis sp. assessed as inhibition of mobility after 168 hr; format: functional
[2] = Stability of the compound assessed as apperance of pyrroles at 5 mg/mL after 24 to 168 hr by thin layer chromatographic analysis under cold temperature; format: physicochemical
[3] = Stability of the compound assessed as apperance of new pyrrolizidine alkaloids at 5 mg/mL after 24 to 168 hr by thin layer chromatographic analysis under UV light and cold temperature; format: physicochemical
[4] = Stability of the compound assessed as apperance of new pyrrolizidine alkaloids at 5 mg/mL after 24 to 168 hr by thin layer chromatographic analysis under UV light and hot temperature; format: physicochemical
Meloidogyne incognita [5] = experiment: Repellent activity against juvenile stage of Meloidogyne incognita (root-knot nematode) at 0.1 mg/mL after 40 hr by stereomicroscopic analysis (reference value: 51%); format: functional
[6] = system: Phasmarhabditis hermaphrodita; experiment: Nematicidal activity against juvenile stage of Phasmarhabditis hermaphrodita of assessed as inhibition of mobility after 20 hr; format: functional, organism-based
[7] = Stability of the compound assessed as apperance of pyrroles at 5 mg/mL after 24 to 168 hr by thin layer chromatographic analysis under hot temperature; format: physicochemical
Pratylenchus penetrans [8] = experiment: Nematicidal activity against juvenile stage of Pratylenchus penetrans assessed as inhibition of mobility after 20 hr; format: functional
Meloidogyne incognita [9] = experiment: Ovicidal activity against Meloidogyne incognita (root-knot nematode) assessed as egg hatching at 1 mg/mL after 336 hr (reference value: 54%); format: functional
Pratylenchus penetrans [10] = experiment: Nematicidal activity against juvenile stage of Pratylenchus penetrans assessed as inhibition of mobility after 168 hr; format: functional
[11] = Stability of the compound assessed as conversion of N-oxide to free base at 5 mg/mL after 24 to 168 hr by thin layer chromatographic analysis under cold temperature; format: physicochemical
[12] = Stability of the compound assessed as apperance of new pyrrolizidine alkaloids at 5 mg/mL after 24 to 168 hr by thin layer chromatographic analysis under cold temperature; format: physicochemical
Rhabditis sp. [13] = experiment: Repellent activity against juvenile stage of Rhabditis sp. at 0.1 mg/mL after 40 hr by stereomicroscopic analysis (reference value: 50%); format: functional
[14] = Stability of the compound assessed as apperance of new pyrrolizidine alkaloids at 5 mg/mL after 24 to 168 hr by thin layer chromatographic analysis under hot temperature; format: physicochemical
Heterodera schachtii [15] = experiment: Nematicidal activity against juvenile stage of Heterodera schachtii assessed as inhibition of mobility after 168 hr; format: functional
Rhabditis sp. [16] = experiment: Repellent activity against juvenile stage of Rhabditis sp. at 1 mg/mL after 40 hr by stereomicroscopic analysis (reference value: 50%); format: functional
[17] = Stability of the compound assessed as conversion of N-oxide to free base at 5 mg/mL after 24 to 168 hr by thin layer chromatographic analysis under UV light and hot temperature; format: physicochemical
[18] = Stability of the compound assessed as conversion of N-oxide to free base at 5 mg/mL after 24 to 168 hr by thin layer chromatographic analysis under UV light and cold temperature; format: physicochemical
[19] = Stability of the compound assessed as apperance of pyrroles at 5 mg/mL after 24 to 168 hr by thin layer chromatographic analysis under UV light and hot temperature; format: physicochemical
Meloidogyne incognita [20] = experiment: Nematicidal activity against juvenile stage of Meloidogyne incognita (root-knot nematode) assessed as inhibition of mobility incubated for 168 hr followed by compound wash out measured after 24 hr; format: functional
Meloidogyne incognita [21] = experiment: Nematicidal activity against juvenile stage of Meloidogyne incognita (root-knot nematode) assessed as inhibition of mobility after 168 hr; format: functional
Meloidogyne incognita [22] = experiment: Ovicidal activity against Meloidogyne incognita (root-knot nematode) assessed as egg hatching at 1 mg/mL after 24 hr (reference value: 3%); format: functional
[23] = system: Phasmarhabditis hermaphrodita; experiment: Nematicidal activity against juvenile stage of Phasmarhabditis hermaphrodita of assessed as inhibition of mobility incubated for 168 hr followed by compound wash out measured after 24 hr; format: functional; settings: Pellioditis hermaphrodita
Pratylenchus penetrans [24] = experiment: Nematicidal activity against juvenile stage of Pratylenchus penetrans assessed as inhibition of mobility incubated for 168 hr followed by compound wash out measured after 24 hr; format: functional
Meloidogyne incognita [25] = experiment: Repellent activity against juvenile stage of Meloidogyne incognita (root-knot nematode) at 0.1 mg/mL after 20 hr by stereomicroscopic analysis (reference value: 50%); format: functional
Heterodera schachtii [26] = experiment: Nematicidal activity against juvenile stage of Heterodera schachtii assessed as inhibition of mobility after 20 hr; format: functional
Heterodera schachtii [27] = experiment: Nematicidal activity against juvenile stage of Heterodera schachtii assessed as inhibition of mobility incubated for 168 hr followed by compound wash out measured after 24 hr; format: functional
Rhabditis sp. [28] = experiment: Repellent activity against juvenile stage of Rhabditis sp. at 1 mg/mL after 20 hr by stereomicroscopic analysis (reference value: 48%); format: functional
Rhabditis sp. [29] = experiment: Nematicidal activity against juvenile stage of Rhabditis sp. assessed as inhibition of mobility after 20 hr; format: functional, organism-based
Meloidogyne incognita [30] = experiment: Repellent activity against juvenile stage of Meloidogyne incognita (root-knot nematode) at 1 mg/mL after 40 hr by stereomicroscopic analysis (reference value: 51%); format: functional
Meloidogyne incognita [31] = experiment: Nematicidal activity against juvenile stage of Meloidogyne incognita (root-knot nematode) assessed as inhibition of mobility after 20 hr; format: functional
[32] = system: Phasmarhabditis hermaphrodita; experiment: Nematicidal activity against juvenile stage of Phasmarhabditis hermaphrodita of assessed as inhibition of mobility after 168 hr; format: functional; settings: Pellioditis hermaphrodita
[33] = Stability of the compound assessed as apperance of pyrroles at 5 mg/mL after 24 to 168 hr by thin layer chromatographic analysis under UV light and cold temperature; format: physicochemical
[34] = Stability of the compound assessed as conversion of N-oxide to free base at 5 mg/mL after 24 to 168 hr by thin layer chromatographic analysis under hot temperature; format: physicochemical
Meloidogyne incognita [35] = experiment: Repellent activity against juvenile stage of Meloidogyne incognita (root-knot nematode) at 1 mg/mL after 20 hr by stereomicroscopic analysis (reference value: 50%); format: functional
Rhabditis sp. [36] = experiment: Repellent activity against juvenile stage of Rhabditis sp. at 0.1 mg/mL after 20 hr by stereomicroscopic analysis (reference value: 48%); format: functional

Question: Which results are given for `C[C@H]1C(=O)O[C@@H]2CC[N+]3([O-])CC=C(COC(=O)[C@](C)(O)[C@]1(C)O)[C@H]23` (stereo partly specified) [MONOCROTALINE N-OXIDE]?
Answer: MIC50 (Rhabditis sp. [1]): 21.2 mg/mL (≈ 62.1 mM); Stability [2]: Stable; Stability [3]: Stable; Stability [4]: Stable; Repellency (Meloidogyne incognita [5]): 51%; MIC50 [6]: inactive; Stability [7]: Stable; MIC50 (Pratylenchus penetrans [8]): inactive; Activity (Meloidogyne incognita [9]): 16%; MIC50 (Pratylenchus penetrans [10]): inactive; Stability [11]: Stable; Stability [12]: Stable; Repellency (Rhabditis sp. [13]): 90%; Stability [14]: Stable; MIC50 (Heterodera schachtii [15]): 0.7 mg/mL (≈ 2.05 mM); Repellency (Rhabditis sp. [16]): 100%; Stability [17]: Stable; Stability [18]: Stable; Stability [19]: Stable; MIC50 (Meloidogyne incognita [20]): inactive; MIC50 (Meloidogyne incognita [21]): inactive; Activity (Meloidogyne incognita [22]): 7%; MIC50 [23]: 17.5 mg/mL (≈ 51.3 mM); MIC50 (Pratylenchus penetrans [24]): inactive; Repellency (Meloidogyne incognita [25]): 52%; MIC50 (Heterodera schachtii [26]): inactive; MIC50 (Heterodera schachtii [27]): 37.1 mg/mL (≈ 109 mM); Repellency (Rhabditis sp. [28]): 95%; MIC50 (Rhabditis sp. [29]): inactive; Repellency (Meloidogyne incognita [30]): 56%; MIC50 (Meloidogyne incognita [31]): inactive; MIC50 [32]: 13.7 mg/mL (≈ 40.1 mM); Stability [33]: Stable; Stability [34]: Stable; Repellency (Meloidogyne incognita [35]): 54%; Repellency (Rhabditis sp. [36]): 89%
